These results are taken from ChEMBL document CHEMBL3085656, “A medicinal chemistry perspective for targeting histone H3 lysine-79 methyltransferase DOT1L” (J Med Chem, 2013).

One experiment relates to MV4-11. The experiment can be described thus: cells. As to conditions: Homo sapiens.
For another experiment, the system named is THP-1. The experiment can be described thus: cells. As to conditions: Homo sapiens.
A further experiment concerns MOLM-13. The experiment can be described thus: cells. The conditions noted are these: Homo sapiens.
Experiment [1] in a line: cells. As to conditions: Homo sapiens, MLL.
Experiment [2] in a line: cells. As to conditions: Homo sapiens, MLL. The source holds these as a separate data set.

Consider `CC(C)N(C[C@H]1O[C@@H](n2cnc3c(N)ncnc32)[C@H](O)[C@@H]1O)[C@H]1C[C@@H](CCc2nc3cc(C(C)(C)C)ccc3[nH]2)C1` [PINOMETOSTAT], for which the EC50 in the experiment on MV4-11, in the experiment on THP-1 and with MOLM-13 was 4 nM each time.
With `CC(C)N(CCCNC(=O)Nc1ccc(C(C)(C)C)cc1)C[C@H]1O[C@@H](n2ccc3c(N)ncnc32)[C@H](O)[C@@H]1O`, the EC50 with MV4-11 was 4 nM; in the experiment with THP-1 it was 4 nM; in “cells [1]”, 700 nM; in “cells [2]”, 700 nM; with MOLM-13, 4 nM.

For orientation: EC50 means the concentration that produces a half-maximal response. A low value points to greater potency.
